The assay has as its system CEM cells HIV-1 protection, formazan growth assay. Kind of assay: NCI AIDS Antiviral Assay. Conditions: for IC50: measured here: growth of uninfected CEM cells. The procedure:
The ability of compounds to protect human CEM cells from HIV-1 infection is measured as a screen for new compounds capable of inhibiting the HIV virus. Five concentrations of drug were tested on uninfected and infected cells and cell growth was measured using a soluble formazan assay. […] Compounds that provided at least 50% protection were retested. Compounds that provided at least 50% protection on retest were listed as moderately active. Compounds that reproducibly provided 100% protection were listed as confirmed active. […] Note that the inability to provide protection could be due to toxicity.

The structures appear in SMILES notation. Activity calls are given as the source filed them.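 The calls were made as follows: active = compounds giving half or more protection of infected cells from virus-caused growth loss, again on retest; inactive = the rest.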 Where a SMILES comes first, the peptide text is derived from it. Where only a bound is given, the exact number is not on record here.

As to `CN1CCCn2c(nc3ccccc3c2=O)C1`, the EC50 (usually the concentration needed to bring the measured effect to its halfway point) is over 1100 µM and the IC50 (in general, the concentration that gives 50% inhibition) is over 1100 µM.
`CCOC(=O)C(Cl)(Cl)/S(=N\S(=O)(=O)c1ccccc1)NC(=O)c1ccccc1` (stereo unspecified): the EC50 was over 200 µM and the concentration for half-maximal inhibition (IC50) was over 200 µM.
With `Cc1nc(N)[nH]c(=O)c1CCCNc1ccc(C(=O)NC(CCC(=O)O)C(=O)O)cc1` (stereo unspecified), the EC50 was over 200 µM and the IC50 is 2.75 µM.
Consider `CC(=O)OCC1OC(n2c3c(cc(C#N)c2=S)CCCCC3)C(OC(C)=O)C(OC(C)=O)C1OC(C)=O` (stereo unspecified), for which the EC50 was over 200 µM and the IC50 was over 200 µM.
On to `CC(C)(C)[Si](C)(C)OC1C(C/[N+]([O-])=N\Nc2ccc([N+](=O)[O-])cc2)OC(n2ccc(=O)[nH]c2=O)C1O[Si](C)(C)C(C)(C)C` (stereo unspecified), for which the EC50 is over 200 µM and the IC50 came to 1.95 µM.
In the same order, the values of `CC(C)[Si](CC1=CCCCC12C(=O)N(COCC[Si](C)(C)C)c1ccccc12)(C(C)C)C(C)C` (stereo unspecified) are over 200 µM and over 200 µM.
The like results for `CS(=O)(=O)c1ccc(NNc2cc(=O)[nH]c(=O)[nH]2)cc1` were, in that order, over 200 µM and 70.8 µM.
The like results for `O=S(=O)(NC1OCCCC1I)c1ccccc1` (stereo unspecified) were, in that order, over 200 µM and over 200 µM.
As for `COC(=O)[C@@H]1C[C@]2(CC=C(C)C)c3ccccc3N(S(=O)(=O)c3ccccc3)[C@@H]2N1C(=O)OC`, the EC50 was over 200 µM and the IC50 stood at 20 µM.
Consider `N#Cc1c(-c2ccccc2)[nH]c(=O)n(C2OC(CO)C(O)C(O)C2O)c1=O` (stereo unspecified), for which the EC50 is over 200 µM, the outcome was inactive and the half-maximal inhibitory concentration (IC50) was over 200 µM.
For `CSc1nc(-c2ccc(C)cc2)c(C#N)c(=O)[nH]1`, the result was inactive.
On to `CC(=O)OC1[C@@H](OC(C)=O)[C@H](OC(C)=O)C2(CO2)[C@H](OC(C)=O)[C@H]1OC(C)=O` (stereo partly specified), for which the EC50 is over 200 µM and the IC50 came to 12.3 µM.
For the compound `Cc1ccc(C2=Nc3ccccc3SC(c3cccc([N+](=O)[O-])c3)C2)cc1` (stereo unspecified), the EC50 is over 33.9 µM and the half-maximal inhibitory concentration (IC50) turned out to be 6.17 µM.
In the same order, the values of `CNC(=O)N(Cc1ccccc1)C[C@@H]1CCCN1C(C)=O` are over 200 µM and over 200 µM.
On to `Cn1nc(-c2ccccc2)c2c(/C=C/c3ccc(Cl)cc3)onc2c1=O`, for which the EC50 was over 14.5 µM and the half-inhibitory concentration (IC50) was over 14.5 µM.
In the case of `COc1ccc2cc(C(C)C(O)c3cc(F)c(F)c(F)c3F)ccc2c1` (stereo unspecified), the EC50 was 126 µM and the IC50 was over 200 µM.
As to `O=C1O[C@@H](c2ccccc2)C[C@@H]1CN1CCOCC1`, the result was inactive.
In the case of `Cn1c(N)c(Cc2ccc(Cl)cc2)c(=O)[nH]c1=O`, the EC50 was over 200 µM and the IC50 is over 200 µM.
As to `COC(=O)C1(Cc2ccccc2)Cc2ccccc2C1=O` (stereo unspecified), the EC50 was over 200 µM and the IC50 came to 85.1 µM.
The like results for `BrC1=CCC23CC=C(Br)[C@H]4CC2(COC3)C[C@@H]1O4` (stereo partly specified) were, in that order, over 200 µM and 25.1 µM.
As to `CCN(CC)C(=S)[S][Bi]([S]C(=S)N(CC)CC)[S]C(=S)N(CC)CC`, the EC50 is over 7.94 µM and the IC50 came out at 0.11 µM.
`CN(C)CCCN1c2ccccc2Sc2ccc(Cl)cc21`: the EC50 was over 200 µM and the IC50 was determined as 10.2 µM.
For the compound `COc1ccc2[nH]c(C)cc2c1CN`, the EC50 was over 575 µM and the concentration for half-maximal inhibition (IC50) is 120 µM.
Regarding `COc1ccc(-c2c(-c3ccc(OC)cc3)n3c(=O)n(C)c(=O)n23)cc1`, the EC50 is over 200 µM and the IC50 stood at 79.4 µM.
The like results for `S=c1[nH][nH]c(=S)c2c1[nH]c(=S)n2Cc1ccccc1` were, in that order, 41.7 µM and 43.7 µM.
As to `CN(Cc1ccccc1)C(=NC#N)N(Cc1ccccc1)Cc1ccccc1`, the EC50 was over 19.5 µM and the half-maximal inhibitory concentration (IC50) was over 19.5 µM.
`C#CC1(O)CCC2[C@@H]3CCc4cc(Oc5nc(F)nc(-c6c7ccccc7cn6C)n5)ccc4C3CC[C@@]21C` (stereo partly specified): the EC50 is over 10 µM and the IC50 was over 10 µM.
Consider `NS(=O)(=O)c1ccc(Nc2c3ccccc3nc3c(C(=O)NC(CO)(CO)CO)cccc23)cc1`, for which the EC50 is over 200 µM and the IC50 is 3.39 µM.
As to `O=C(O)Cn1c(=O)ccc2ccccc21`, the EC50 was over 200 µM and the half-inhibitory concentration (IC50) is over 200 µM.
On to `Cc1cc(=O)oc2ccccc12`, for which the EC50 was over 813 µM and the IC50 is over 813 µM.
Turning to `O=C(O)Cc1ccc(N2N=C(c3ccccc3)CC2=O)cc1`, the EC50 was over 200 µM and the IC50 was over 200 µM.
With `CN/N=C(/CCN1CCCC1)CC(c1ccccc1)c1c(O)c2ccccc2oc1=O` (stereo unspecified), the EC50 was over 93.3 µM and the IC50 was 74.1 µM.
For `N/N=C1\C(=O)N(c2ccc(Cl)cc2Cl)C(=O)C(=O)C1c1nc2ccccc2o1` (stereo unspecified), the result was inactive.
On the same count and under the same terms, for `Cc1cc(=O)c2c(o1)C(=O)c1occc1C2=O` the value was “inactive”.
As to `COC(=O)C(C(=O)C(=O)Nc1nc(=S)[nH][nH]1)c1csc(-n2nc(-c3ccccc3)cc2-c2ccccc2)n1` (stereo unspecified), the EC50 was over 69.2 µM and the IC50 is over 69.2 µM.
Take `CC(=O)CCn1ncc(Cl)c(Cl)c1=O`: the EC50 is over 550 µM and the 50% inhibitory concentration (IC50) turned out to be 6.92 µM.
The like results for `CCOC(=O)NC(OC)(C(F)(F)F)C(F)(F)F` were, in that order, over 200 µM and over 200 µM.
In the same order, the values of `CCC12C=CCN3CC[C@]4(C(=C(C(=O)OC)[C@@H]1Nc1ncnc5c1ncn5C1OC(COC(C)=O)C(OC(C)=O)C1OC(C)=O)Nc1ccccc14)C32` (stereo partly specified) are over 13.8 µM and 7.76 µM.
Turning to `CC1CCC(C(C)C)C(O[C@@H]2OC(=O)C[C@@H]2Sc2ccccc2)C1` (stereo partly specified), the outcome was inactive.
For the compound `N#CC(C(=N/NC(N)=S)/C(=N\NC(N)=S)C(C#N)c1ccccc1)c1ccccc1` (stereo unspecified), the EC50 was over 97.7 µM and the IC50 turned out to be 47.9 µM.
For the compound `COc1cc(-c2cc(CCC(=O)Nc3ccccc3[N+](=O)[O-])n(-c3ccc([N+](=O)[O-])cc3[N+](=O)[O-])n2)ccc1O`, the EC50 is over 47.9 µM and the IC50 is over 47.9 µM.
On to `CC(=O)N/N=C(\N)c1nc2c(n3nc(C)nc13)CCCC2`, for which the EC50 was over 200 µM and the concentration for half-maximal inhibition (IC50) came to 91.2 µM.
Take `COc1ccc(OC)c(/C=C/C(=O)C(C)(C)C)c1`: the EC50 is over 105 µM and the IC50 was found to be 19.1 µM.
Regarding `CCN1CCN(c2nc3ccccc3c3c2CCOc2ccccc2-3)CC1`, the result was inactive.
As for `CC(=O)c1cccc(NC(=O)/C(=N\NC(=S)NN)C2C(=O)Nc3ccccc3S2=O)c1` (stereo unspecified), the EC50 is over 282 µM and the IC50 is over 282 µM.
In the case of `CCOCC(C)(CO)CC(C)CO` (stereo unspecified), the EC50 was over 200 µM and the IC50 was over 200 µM.
Take `COc1cc(/C=C/C(=O)c2sc(-n3nc(-c4ccccc4)cc3-c3ccccc3)nc2C)ccc1O`: the EC50 is over 14.5 µM and the IC50 is over 14.5 µM.
Regarding `C=C1CCC2C(C)(CO)C(O)CCC2(C)C1CC(O)C1=CCOC1=O` (stereo unspecified), the outcome was inactive.
The same measure, in the same setting: for `CC(C)CC(NC(=O)CN)C(=O)NC(C)C(=O)NC(C)C(=O)NC(CO)C(=O)NC(C)C(N)=O` (stereo unspecified) (H-GLAASA-NH2; configuration not given here) the value was “inactive”.
On to `CC(=O)O[C@H]1[C@@H]2[C@@H](C[C@H](C)[C@H]3C=CC(=O)[C@@]31C)OC(=O)[C@@H]2C`, for which the EC50 was over 200 µM and the IC50 came to 34.7 µM.
In the same order, the values of `CC(C)CCCC(C)[C@H]1CC[C@H]2[C@@H]3CC[C@H]4C[C@@H](CCC=C(c5cc(Cl)c(OC(=O)C(C)C)c(C(=O)O)c5)c5cc(Cl)c(OC(=O)C(C)C)c(C(=O)O)c5)CC[C@]4(C)[C@H]3CC[C@]12C` (stereo partly specified) are 105 µM and 126 µM.
On to `CC(C)(C)C1CCC(O)(c2ccccc2)CC1` (stereo unspecified), for which the EC50 is over 42.7 µM and the concentration for half-maximal inhibition (IC50) is over 42.7 µM.
Consider `CCN(CC)CCC(=O)c1ccc(Oc2ccccc2)cc1`, for which the EC50 is over 200 µM and the half-maximal inhibitory concentration (IC50) came to 17.4 µM.
The like results for `c1ccc(CSCCC(SCc2ccccc2)SCc2ccccc2)cc1` were, in that order, over 200 µM and over 200 µM.
`COC(C(O)c1ccc2c(c1)OCO2)P(=O)(c1ccccc1)c1ccccc1` (stereo unspecified): the result was inactive.
Consider `COc1ccc(C2c3cc4c(cc3OC(NNS(=O)(=O)c3ccc(C)cc3)C2C)OCO4)cc1` (stereo unspecified), for which the EC50 was over 200 µM and the IC50 was 26.3 µM.
In the case of `CC1=CC2Cc3ccoc3C(C)(C)C2CC1` (stereo unspecified), the result was inactive.
Still for that read-out and setting: for `CC(=O)OC1=C2CC3(C)OC(=O)CC(C)(C)C3=CC=C2C=C(C(C)C)C1=O` (stereo unspecified) the value was “inactive”.
With `Clc1cccc(-n2cccc2)c1`, the EC50 was over 200 µM and the concentration for half-maximal inhibition (IC50) was over 200 µM.
In the case of `CN1CCN(CCSC2Cc3cc(Cl)ccc3Sc3ccccc32)CC1` (stereo unspecified), the EC50 is over 64.6 µM and the half-maximal inhibitory concentration (IC50) was 7.76 µM.
In the same order, the values of `COc1cc2c(cc1OC)C(=O)Cc1ccc(OC)c(OC)c1CN(C)CC2` are over 67.6 µM and over 67.6 µM.
The like results for `O=c1c(Cc2ccccc2)c(O)cc2n1CCC2` were, in that order, over 148 µM and over 148 µM.
In the same order, the values of `CC(=O)OC(Cc1cc(C=C(C(F)(F)F)C(F)(F)F)cc(C)n1)(C(F)(F)F)C(F)(F)F` are over 200 µM and 0.955 µM.
In the case of `CCOC(=O)/C(F)=C/c1cccc(C)c1`, the EC50 is over 126 µM and the half-maximal inhibitory concentration (IC50) was over 126 µM.
For `CC(C)(CN1CCCCC1)C(/C=C/c1ccc(Cl)c(Cl)c1)=N\NC(=O)N/N=C(/C=C/c1ccc(Cl)c(Cl)c1)C(C)(C)CN1CCCCC1`, the EC50 is over 200 µM and the IC50 was 2.24 µM.
In the same order, the values of `COc1ccc(S(=O)(=O)N(C)c2ccccc2)cc1` are over 200 µM and 7.76 µM.
In the same order, the values of `N=[N+]=CC(=O)OCC(N)C(=O)O` (stereo unspecified) are over 200 µM and 2.88 µM.
Take `CCCCn1cnnc1NS(=O)(=O)c1cc(C)c(Cl)cc1SCC(=O)O`: the EC50 was over 200 µM and the IC50 is over 200 µM.

The values are drawn from PubChem BioAssay AID179 (DTP/NCI, 2004).
